From PubChem BioAssay (NCI)
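Five compound concentrations were applied to cells in 96-well plates for 48 hours; endpoints were derived by simple linear interpolation of the resulting dose-response curve. The concentration for 50% growth inhibition is given as GI50. TGI marks complete inhibition of growth.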

What was measured:
Test in all cases: NCI-60 cell line screen, 48 h
786-0 renal = tested on: 786-0 renal
A498 renal = tested on: A498 renal
A549 NSCLC = tested on: A549 NSCLC
ACHN renal = tested on: ACHN renal
BT-549 breast = tested on: BT-549 breast
CAKI-1 renal = tested on: CAKI-1 renal
CCRF-CEM leukemia = tested on: CCRF-CEM leukemia
COLO 205 colon = tested on: COLO 205 colon
DU-145 prostate = tested on: DU-145 prostate
EKVX NSCLC = tested on: EKVX NSCLC
HCC-2998 colon = tested on: HCC-2998 colon
HCT-116 colon = tested on: HCT-116 colon
HCT-15 colon = tested on: HCT-15 colon
HL-60(TB) leukemia = tested on: HL-60(TB) leukemia
HOP-62 NSCLC = tested on: HOP-62 NSCLC
HOP-92 NSCLC = tested on: HOP-92 NSCLC
HT29 colon = tested on: HT29 colon
IGROV1 ovarian = tested on: IGROV1 ovarian
K-562 leukemia = tested on: K-562 leukemia
KM12 colon = tested on: KM12 colon
M14 melanoma = tested on: M14 melanoma
MALME-3M melanoma = tested on: MALME-3M melanoma
MCF7 breast = tested on: MCF7 breast
MDA-MB-435 = tested on: MDA-MB-435
MDA-MB-468 breast = tested on: MDA-MB-468 breast
MOLT-4 leukemia = tested on: MOLT-4 leukemia
NCI-H226 lung = tested on: NCI-H226 lung
NCI-H23 lung = tested on: NCI-H23 lung
NCI-H460 lung = tested on: NCI-H460 lung
NCI-H522 lung = tested on: NCI-H522 lung
NCI/ADR-RES ovarian = tested on: NCI/ADR-RES ovarian
OVCAR-3 ovarian = tested on: OVCAR-3 ovarian
OVCAR-4 ovarian = tested on: OVCAR-4 ovarian
OVCAR-5 ovarian = tested on: OVCAR-5 ovarian
OVCAR-8 ovarian = tested on: OVCAR-8 ovarian
PC-3 prostate = tested on: PC-3 prostate
RPMI-8226 leukemia = tested on: RPMI-8226 leukemia
RXF 393 renal = tested on: RXF 393 renal
SF-268 CNS = tested on: SF-268 CNS
SF-295 CNS = tested on: SF-295 CNS
SF-539 CNS = tested on: SF-539 CNS
SK-MEL-2 melanoma = tested on: SK-MEL-2 melanoma
SK-MEL-28 melanoma = tested on: SK-MEL-28 melanoma
SK-MEL-5 melanoma = tested on: SK-MEL-5 melanoma
SK-OV-3 ovarian = tested on: SK-OV-3 ovarian
SN12C renal = tested on: SN12C renal
SNB-19 CNS = tested on: SNB-19 CNS
SNB-75 CNS = tested on: SNB-75 CNS
SR leukemia = tested on: SR leukemia
T-47D breast = tested on: T-47D breast
TK-10 renal = tested on: TK-10 renal
U251 CNS = tested on: U251 CNS
UACC-257 melanoma = tested on: UACC-257 melanoma
UACC-62 melanoma = tested on: UACC-62 melanoma
UO-31 renal = tested on: UO-31 renal

SMILES: Cn1cc(-c2cc3nc(-c4cn(C)c5ncc(Br)cc45)cc(N)n3n2)c2ccccc21
- GI50 (786-0 renal): 13.4 µM
- TGI (786-0 renal): 33.3 µM
- GI50 (A498 renal): 8.84 µM
- TGI (A498 renal): 23.7 µM
- GI50 (A549 NSCLC): 9.25 µM
- TGI (A549 NSCLC): > 100 µM
- GI50 (ACHN renal): 13.5 µM
- TGI (ACHN renal): 45.6 µM
- GI50 (BT-549 breast): 19.5 µM
- TGI (BT-549 breast): 47.8 µM
- GI50 (CAKI-1 renal): 12.7 µM
- TGI (CAKI-1 renal): 48.1 µM
- GI50 (CCRF-CEM leukemia): 3.52 µM
- TGI (CCRF-CEM leukemia): > 100 µM
- GI50 (COLO 205 colon): 16.8 µM
- TGI (COLO 205 colon): 33.8 µM
- GI50 (DU-145 prostate): 21.4 µM
- TGI (DU-145 prostate): > 100 µM
- GI50 (EKVX NSCLC): 10.1 µM
- TGI (EKVX NSCLC): 27.1 µM
- GI50 (HCC-2998 colon): 3.74 µM
- TGI (HCC-2998 colon): 13.9 µM
- GI50 (HCT-116 colon): 7.98 µM
- TGI (HCT-116 colon): 27.6 µM
- GI50 (HCT-15 colon): 2.53 µM
- TGI (HCT-15 colon): 6.94 µM
- GI50 (HL-60(TB) leukemia): 3.53 µM
- TGI (HL-60(TB) leukemia): 32.6 µM
- GI50 (HOP-62 NSCLC): 14.8 µM
- TGI (HOP-62 NSCLC): 46.5 µM
- GI50 (HOP-92 NSCLC): 4.97 µM
- TGI (HOP-92 NSCLC): 25.1 µM
- GI50 (HT29 colon): 5.65 µM
- TGI (HT29 colon): 20.4 µM
- GI50 (IGROV1 ovarian): 11.7 µM
- TGI (IGROV1 ovarian): 32.6 µM
- GI50 (K-562 leukemia): 2.94 µM
- TGI (K-562 leukemia): > 100 µM
- GI50 (KM12 colon): 6.04 µM
- TGI (KM12 colon): 26.7 µM
- GI50 (M14 melanoma): 15.3 µM
- TGI (M14 melanoma): 38.1 µM
- GI50 (MALME-3M melanoma): 16.8 µM
- TGI (MALME-3M melanoma): 32.7 µM
- GI50 (MCF7 breast): 5.31 µM
- TGI (MCF7 breast): 27.3 µM
- GI50 (MDA-MB-435): 16.4 µM
- TGI (MDA-MB-435): 34.1 µM
- GI50 (MDA-MB-468 breast): 3.71 µM
- TGI (MDA-MB-468 breast): 15.6 µM
- GI50 (MOLT-4 leukemia): 3.52 µM
- TGI (MOLT-4 leukemia): 30.9 µM
- GI50 (NCI-H226 lung): 15.1 µM
- TGI (NCI-H226 lung): 62.7 µM
- GI50 (NCI-H23 lung): 15.7 µM
- TGI (NCI-H23 lung): 41.3 µM
- GI50 (NCI-H460 lung): 7.78 µM
- TGI (NCI-H460 lung): 28.1 µM
- GI50 (NCI-H522 lung): 12.8 µM
- TGI (NCI-H522 lung): 32.7 µM
- GI50 (NCI/ADR-RES ovarian): 17.4 µM
- TGI (NCI/ADR-RES ovarian): 76.1 µM
- GI50 (OVCAR-3 ovarian): 13.5 µM
- TGI (OVCAR-3 ovarian): 28.5 µM
- GI50 (OVCAR-4 ovarian): 17.1 µM
- TGI (OVCAR-4 ovarian): 59.7 µM
- GI50 (OVCAR-5 ovarian): 14.5 µM
- TGI (OVCAR-5 ovarian): 35.1 µM
- GI50 (OVCAR-8 ovarian): 21.8 µM
- TGI (OVCAR-8 ovarian): 85.9 µM
- GI50 (PC-3 prostate): 6.58 µM
- TGI (PC-3 prostate): > 100 µM
- GI50 (RPMI-8226 leukemia): 13.6 µM
- TGI (RPMI-8226 leukemia): > 100 µM
- GI50 (RXF 393 renal): 6.13 µM
- TGI (RXF 393 renal): 19.3 µM
- GI50 (SF-268 CNS): 13.1 µM
- TGI (SF-268 CNS): 89.6 µM
- GI50 (SF-295 CNS): 13.5 µM
- TGI (SF-295 CNS): 31.1 µM
- GI50 (SF-539 CNS): 14.1 µM
- TGI (SF-539 CNS): 28.7 µM
- GI50 (SK-MEL-2 melanoma): 11.2 µM
- TGI (SK-MEL-2 melanoma): 26.7 µM
- GI50 (SK-MEL-28 melanoma): 15.2 µM
- TGI (SK-MEL-28 melanoma): 29.1 µM
- GI50 (SK-MEL-5 melanoma): 15.1 µM
- TGI (SK-MEL-5 melanoma): 28.4 µM
- GI50 (SK-OV-3 ovarian): 20.4 µM
- TGI (SK-OV-3 ovarian): 59.6 µM
- GI50 (SN12C renal): 12.8 µM
- TGI (SN12C renal): 27.9 µM
- GI50 (SNB-19 CNS): 17.8 µM
- TGI (SNB-19 CNS): 41.9 µM
- GI50 (SNB-75 CNS): 11.9 µM
- TGI (SNB-75 CNS): 58.2 µM
- GI50 (SR leukemia): 2.46 µM
- TGI (SR leukemia): > 100 µM
- GI50 (T-47D breast): 7.38 µM
- TGI (T-47D breast): 30.4 µM
- GI50 (TK-10 renal): 13.8 µM
- TGI (TK-10 renal): 44.9 µM
- GI50 (U251 CNS): 5.65 µM
- TGI (U251 CNS): 27.4 µM
- GI50 (UACC-257 melanoma): 14 µM
- TGI (UACC-257 melanoma): 30.4 µM
- GI50 (UACC-62 melanoma): 11.5 µM
- TGI (UACC-62 melanoma): 24.8 µM
- GI50 (UO-31 renal): 13.1 µM
- TGI (UO-31 renal): 45.8 µM
